{"source": "patent US20170014391A1", "about": "“SGK1 INHIBITORS FOR TREATMENT OF PROSTATE CANCER” (Sloan-Kettering Institute for Cancer Research, priority 2013, published 2017)", "key": {"[1]": {"test_system": "AR target gene expression", "assay": "AR target gene expression with GR antagonists", "type": "cell-based"}, "[2]": {"target": "GR (Homo sapiens, UniProt P04150)", "sequence (P04150 whole entry)": "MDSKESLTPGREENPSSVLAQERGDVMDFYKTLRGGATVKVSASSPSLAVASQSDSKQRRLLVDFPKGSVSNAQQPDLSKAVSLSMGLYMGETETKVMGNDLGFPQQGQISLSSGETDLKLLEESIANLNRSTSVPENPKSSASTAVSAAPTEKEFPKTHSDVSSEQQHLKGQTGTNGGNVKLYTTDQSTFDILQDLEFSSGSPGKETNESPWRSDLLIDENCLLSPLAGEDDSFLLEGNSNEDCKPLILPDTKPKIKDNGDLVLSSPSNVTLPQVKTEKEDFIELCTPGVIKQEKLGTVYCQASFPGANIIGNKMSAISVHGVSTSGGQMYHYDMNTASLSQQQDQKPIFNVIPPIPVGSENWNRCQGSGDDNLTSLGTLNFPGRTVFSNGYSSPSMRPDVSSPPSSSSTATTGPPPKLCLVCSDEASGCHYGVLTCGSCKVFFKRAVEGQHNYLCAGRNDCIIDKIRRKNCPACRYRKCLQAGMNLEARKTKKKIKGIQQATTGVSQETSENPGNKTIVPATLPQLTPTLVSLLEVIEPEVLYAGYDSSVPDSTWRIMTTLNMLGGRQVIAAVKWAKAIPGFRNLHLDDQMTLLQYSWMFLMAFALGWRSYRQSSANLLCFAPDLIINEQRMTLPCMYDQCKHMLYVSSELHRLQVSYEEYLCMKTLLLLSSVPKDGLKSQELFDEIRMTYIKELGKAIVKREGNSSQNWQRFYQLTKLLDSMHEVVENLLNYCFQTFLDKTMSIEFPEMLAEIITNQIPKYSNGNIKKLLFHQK", "settings": "patients with Cushing syndrome; cited from earlier work"}, "[3]": {"settings": "in vivo; cited from earlier work"}, "[4]": {"test_system": "LNCaP/AR xenograft tumors", "settings": "previously shown (Clegg et al., 2012; Tran et al., 2009); cited from earlier work"}, "[5]": {"test_system": "LNCaP/AR xenograft tumors", "assay": "LNCaP/AR xenografts in castrate mice, long-term antiandrogen treatment (pilot cohort)", "type": "in vivo", "settings": "for Mean Tumor Volume (mm^3): Day 0: 10 mg/kg oral gavage 5 days a week, start of treatment; for % Regression: D28 Mean: 10 mg/kg, day 28; for Mean Tumor Volume (mm^3) at harvest: harvest after progression on continued treatment; for Day of Harvest: Mean: tumors harvested after progression"}, "[6]": {"test_system": "GR mRNA", "assay": "GR mRNA in LREX′ cell line in vitro", "type": "cell-based", "excerpt": "(§1) A. GR mRNA in LREX′ xenografts. […] . […] C. […] AUC=area under curve. […] . […] See also FIG. S7.\n(§2) RNA was extracted from cell lines using the RNeasy kit (Qiagen). Frozen tumors were lysed with lysing matrix A using the Fast-Prep24 tissue homogenizer system (MP BIOMEDICALS) in Trizol (Invitrogen) followed by clean up with RNeasy (Qiagen). cDNA was generated with the High Capacity cDNA Reverse Transcription Kit (Applied Biosystems.) Data was quantified relative to either beta Actin or GAPDH expression and relative expression was generally plotted. Primers for ACTB (PPH00073E), NDRG1(PPH02202B), NR3C1(PPH02652A), and SGK1(PPH00387E), STK39 (PPH14239B), GRB10 (PPH05866B), TIPARP (PPH07883A), PMEPA1 (PPH01013B) were purchased from SA Biosciences. Other qPCR primers are as follows: […]"}, "[7]": {"test_system": "AR target genes in LREX′ cell line", "assay": "Expression of AR target genes in LREX′ cell line (RT-qPCR)", "type": "cell-based", "excerpt": "A. Normalized expression array signal (Illumina HT-12) of a suite of 74 AR target genes in control (n=10), 4 day (n=8), and LREX′ (n=8, right) xenograft tumors. Genes are ranked by degree of restoration of expression in resistant tissue ((Res-4 day)/(Control-4 day)). All resistant tissues were continued on anti-androgen treatment through time of harvest. B. Fractional restoration values of each of the 74 AR targets in LREX′ xenografts (n=8) or resistant tissues from the validation cohort (n=12, see also FIG. S3). C. GR mRNA in resistant tissues used in B. D. Expression of AR target genes in the LREX′ cell line in steroid depleted media after 8 hours of treatment with the indicated agonists, in vitro. Enzalutamide=10 micromolar, V=Vehicle.+/−s.e.m. See also FIGS. S3, S4.\nA. LnCaP/AR cells engineered to express GFP or GR were treated with indicated drugs. […] D. Control or AR siRNA knock-down in LREX′ followed by treatment with indicated drugs. […] Cells were treated in charcoal stripped media. Expression determined by RT-qPCR+/−s.e.m.\nLREX′ cells were derived from a single enzalutamide resistant tumor that was harvested, disaggregated with collagenase treatment, and then maintained in RPMI supplemented with 20% FBS and 1 μM enzalutamide. Cells were initially grown on collagen-coated flasks until confluent and then were maintained on standard tissue culture dishes. CS1 were similarly derived from vehicle treated tumors and maintained in standard LNCaP/AR media. LNCaP/AR and LREX′ cells were cultured in phenol-red free RPMI with 10% charcoal-stripped FBS prior to drug treatments.\nas §2"}, "[8]": {"test_system": "DU145 and PC3 cells", "settings": "AR-negative cells; cited from earlier work"}, "[9]": {"settings": "Tran et al., 2009; cited from earlier work"}, "[10]": {"test_system": "GR mRNA (NR3C1)", "assay": "GR mRNA (RT-qPCR) in LNCaP/AR xenograft tumors, validation cohort", "type": "in vivo, mice", "parameters": "key: expression relative to beta-actin or GAPDH", "settings": "individual tumor with acquired resistance to the drug (10 mg/kg), relative expression", "excerpt": "as §2"}, "[11]": {"test_system": "PSA", "assay": "Maximal PSA decline in patients receiving enzalutamide", "type": "in vivo", "settings": "enzalutamide 160 mg daily"}, "[12]": {"test_system": "VCaP cells", "settings": "Tran et al., 2009; cited from earlier work"}, "[13]": {"test_system": "GR mRNA", "assay": "GR mRNA in LREX′ xenografts after enzalutamide discontinuation", "type": "in vivo, mice", "settings": "8 days after discontinuation, after 7 weeks of 10 mg/kg", "excerpt": "as §1, §2"}, "[14]": {"test_system": "VCaP cells", "assay": "VCaP in vitro growth assay (CellTiter-Glo)", "type": "cell-based", "settings": "Enz 10 micromolar, standard culture conditions", "procedure": "Enz=10 micromolar, Dex=100 nM, CMP 15=1 micromolar. A. Western blot analysis of prostate cancer cell lines. B, C and D. Cell viability assessed by CellTiter-Glo (Promega) assay and normalized to day 1 value after indicated treatments+/−s.e.m. E. Confirmation of GR knock-down by western blot after infection with GR targeting shRNA. F. Apoptosis as assessed by cPARP western blot after 3 days of indicated treatment. G. A suite of AR targets relevant to VCaP was defined (see methods) and normalized expression of each gene after 24 hours of indicated drug treatments is depicted by heat map and ranked by degree of induction with Dex. H. Expression of the top two genes from […]. (KLK2 and FKBP5) after 24 hours of indicated treatments+/−s.e.m. See also FIG. S6.\nViability is plotted normalized to day 1."}, "[15]": {"test_system": "GR", "assay": "Bone marrow evaluation: GR IHC of tumor cells in patients receiving enzalutamide", "type": "in vivo", "settings": "bone metastases, enzalutamide 160 mg daily", "procedure": "Patients were treated with enzalutamide 160 mg daily. Bone marrow biopsy and aspirate (˜5 mL) were performed before treatment and at week 8. The bone marrow specimens were obtained by transiliac biopsy, and samples were processed according to standard MD Anderson Cancer Center decalcification and fixation procedures. After pathologic evaluation, samples were stored in the MD Anderson Cancer Center Prostate Cancer Tissue Bank. Imaging studies were performed at the time of suspected prostate cancer progression or at the treating physician's discretion, but generally not prior to 12 weeks post-treatment initiation. […] Retrospective analysis for GR was performed by IHC on […] formalin-fixed, paraffin-embedded bone marrow biopsy sections with anti-GR at a dilution of 1:200 (BD Transduction Laboratories #611227). A Dako autostainer and standard 3,3-diaminobenzidine were used. GR expression was assessed in a blinded fashion by two pathologists scoring at least 100 tumor cells per specimen. Plotted are either data from all specimens or only from patients with usable material at baseline and 8 weeks."}, "[16]": {"test_system": "LREX′ cells", "assay": "Expression profiling (global transcriptome) of LREX′ cells", "type": "cell-based", "settings": "enzalutamide 10 micromolar"}, "[17]": {"test_system": "GR protein in CS1 or LnCaP/AR", "assay": "Intracellular GR flow cytometric analysis of CS1 or LnCaP/AR cells", "settings": "enzalutamide 1 micromolar, 4 week experiment", "quoted_text": "(§3) E. Intracellular GR flow cytometric analysis of indicated cells at indicated times points.\n(§4) Cells were re-suspended in Fixation/Permeabilization working solution (eBioscience; San Diego, Calif., USA) at a concentration of 1-2×10^6 cells/ml for 30 minutes at room temperature. The cells were subsequently stained with primary antibodies, Rabbit (DA1E) mAb IgG XP® Isotype Control, androgen receptor (D6F11) XP® Rabbit mAb, or glucocorticoid receptor (D6H2L) XP® Rabbit mAb (Cell Signaling Technology; Danvers, Mass., USA) for 20 minutes at room temperature. The cells were washed twice with Flow Cytometry Staining Buffer (eBioscience; San Diego, Calif., USA), and then stained with secondary antibody, Allophycocyanin-AffiniPure F(ab′)2 Fragment Donkey Anti-Rabbit IgG (Jackson ImmunoResearch Laboratories, Inc.; Westgrove, Pa., USA) for 20 minutes at room temperature. Following two more washes, the cells were re-suspended in Flow Cytometry Staining Buffer and analyzed by flow cytometry on a LSRII (BD Biosciences; San Jose, Calif., USA) using FlowJo software (Tree Star, Ashland, Oreg., USA). For GR staining, cells were maintained in their standard media and treated with dexamethasone for 20 minutes prior to harvest to fully expose antigen."}, "[18]": {"test_system": "GR protein in LREX′ cells", "assay": "Intracellular GR flow cytometric analysis of LREX′ cells", "quoted_text": "as §3, §4"}, "[19]": {"test_system": "LnCaP/AR and sub-lines", "assay": "In vitro growth by cell counting (Vi-cell)", "settings": "1 micromolar, FIG. S7B", "quoted_text": "B. Relative cell numbers determined by cell counting (Vi-cell) of indicated cells with vehicle or 1 micro-molar enzalutamide treatment.\nLnCaP/AR and sub-lines: Equivalent numbers of cells were plated and then harvested and counted in triplicate at indicated time points using the Beckman Coulter Vi-Cell XR. Cells were passaged at each time point and identical numbers of cells re-plated. Fold increase in cell numbers were determined for each time interval."}, "[20]": {"settings": "steroid depleted media, 8 hours"}, "[21]": {"settings": "enzalutamide 10 micromolar, 8 hours"}, "[22]": {"settings": "LREX′^off, enzalutamide 1 micromolar"}}, "note": "Several values for one entry are separate records, joined by “and”; a condition that tells them apart may be missing. Equal entries are not always repeated."}
{"smiles": "CC#C[C@]1(O)CC[C@H]2[C@@H]3CCC4=CC(=O)CCC4=C3[C@@H](c3ccc(N(C)C)cc3)C[C@@]21C", "note": "[mefipristone]", "values": [{"measurement": "effect on AR target gene expression", "setting": "[1]", "result": "activate"}, {"measurement": "risk-benefit of GR inhibition in humans", "setting": "[2]", "result": "acceptable risk-benefit profile"}]}
{"smiles": "CC(C)C(=O)Nc1ccc([N+](=O)[O-])c(C(F)(F)F)c1", "note": "[flutamide]", "values": [{"measurement": "Distribution: Protein-binding", "setting": "[3]", "result": "Distribution: Protein-binding: 90%"}, {"measurement": "Excretion", "setting": "[3]", "result": "Urine, faeces (small amounts)"}]}
{"smiles": "CNC(=O)c1ccc(N2C(=S)N(c3ccc(C#N)c(C(F)(F)F)c3)C(=O)C23CCC3)cc1F", "note": "[RD162]", "values": [{"measurement": "LNCaP/AR xenograft tumors during the first 28 days of treatment", "setting": "[4]", "result": "regress"}, {"measurement": "Mean Tumor Volume (mm^3): Day 0", "setting": "[5]", "result": 379, "unit": "mm^3"}, {"measurement": "% Regression: D28 Mean", "setting": "[5]", "result": 80, "unit": "%"}, {"measurement": "Mean Tumor Volume (mm^3) at harvest", "setting": "[5]", "result": 554, "unit": "mm^3"}, {"measurement": "Day of Harvest: Mean", "setting": "[5]", "result": "D173 days"}]}
{"smiles": "C[C@]12CCC(=O)C[C@@H]1CC[C@@H]1[C@@H]2CC[C@]2(C)[C@@H](O)CC[C@@H]12", "note": "[DHT, dihydrotestosterone]", "values": [{"measurement": "GR mRNA levels after DHT exposure", "setting": "[6]; charcoal stripped media, 8 hours", "result": "reduced"}, {"measurement": "expression of 7 AR targets and PSA (8 genes)", "setting": "[7]; [20]", "result": "regulated"}, {"measurement": "expression of KLK3 (PSA)", "setting": "[7]; [20]", "result": "comparably induced"}]}
{"smiles": "CC#C[C@]1(O)CCC2C3CCC4=CC(=O)CCC4=C3[C@@H](c3ccc4c(c3)OCO4)C[C@@]21C", "note": "(stereo partly drawn) [ORG34517]", "values": [{"measurement": "effect on AR target gene expression", "setting": "[1]", "result": "activate"}]}
{"smiles": "CNC(=O)c1ccc(N2C(=S)N(c3ccc(C#N)c(C(F)(F)F)c3)C(=O)C2(C)C)cc1F", "note": "[enzalutamide]", "values": [{"measurement": "sensitivity of DU145 and PC3 cells", "setting": "[8]", "result": "resistant"}, {"measurement": "half-life in mice", "setting": "[9]", "result": "prolonged half-life"}, {"measurement": "GR mRNA levels after withdrawal in vitro", "setting": "[6]; LREX′ passaged without enzalutamide, 23 days", "result": "dropped as early as 1 day after discontinuation and continued to decline throughout the 23 days"}, {"measurement": "effect of co-treatment on DHT reduction of GR mRNA", "setting": "[6]; [21]", "result": "reversed"}, {"measurement": "GR mRNA Expression", "setting": "[10]; listed as Enz", "result": "29.8 and 24.2 and 24.0 and 14.3 and 0.5 and 127.7 and 53.0"}, {"measurement": "LNCaP/AR xenograft tumors during the first 28 days of treatment", "setting": "[4]", "result": "regress"}, {"measurement": "good responders with maximal PSA decline greater than 50%", "setting": "[11]; benefit for greater than 6 months", "result": "11 of 13"}, {"measurement": "poor responders with maximal PSA decline greater than 50%", "setting": "[11]; discontinued earlier than 6 months", "result": "1 of 14"}, {"measurement": "sensitivity of VCaP cells in vitro", "setting": "[12]", "result": "enzalutamide-sensitive"}, {"measurement": "drop of GR mRNA levels after treatment discontinuation", "setting": "[13]", "result": "~5", "unit": "fold"}, {"measurement": "growth of VCaP cells", "setting": "[14]", "result": "inhibited growth"}, {"measurement": "mean percentage of GR positive cells at 8 weeks, poor responders", "setting": "[15]", "result": 29, "unit": "%"}, {"measurement": "percentage of GR-positive cells at 8 weeks, good responders", "setting": "[15]", "result": 10, "unit": "%"}, {"measurement": "effect on Dex-induced gene expression (heatmap)", "setting": "[16]", "result": "not impacted"}, {"measurement": "median GR expression intensity", "setting": "[17]; cells not previously exposed", "result": "no change"}, {"measurement": "area under the GR staining population", "setting": "[17]", "result": "did increase"}, {"measurement": "half-life of exponential decay in median GR protein signal upon withdrawal", "setting": "[18]; LREX′ after enzalutamide withdrawal", "result": 182, "unit": "h"}, {"measurement": "GR expression after continued drug exposure for 7 weeks", "setting": "[18]; [22]", "result": "clear shift in GR expression in essentially all cells"}, {"measurement": "doubling time of GR expression on re-exposure", "setting": "[18]; [22]", "result": 6.8, "unit": "days"}, {"measurement": "time to plateau in loss of GR expression upon withdrawal", "setting": "[18]; followed to 17 weeks", "result": "≤ 7", "unit": "weeks"}, {"measurement": "antiproliferative effect in vitro", "setting": "[19]", "result": "weak antiproliferative effect"}, {"measurement": "effect on Dex activity at AR target genes", "setting": "[7]; enzalutamide 10 micromolar", "result": "did not notably affect"}, {"measurement": "effect on DHT regulation of the 8 genes", "setting": "[7]; [21]", "result": "blocked"}]}
{"smiles": "CNC(=O)c1ccc(N2C(=S)N(c3cnc(C#N)c(C(F)(F)F)c3)C(=O)C23CCC3)cc1F", "note": "[ARN-509]", "values": [{"measurement": "GR mRNA Expression", "setting": "[10]; listed as ARN", "result": "47.4 and 41.6 and 30.2 and 14.5 and 11.4 and 1.4 and 0.8 and 172.1 and 103.8"}, {"measurement": "LNCaP/AR xenograft tumors during the first 28 days of treatment", "setting": "[4]", "result": "regress"}, {"measurement": "Mean Tumor Volume (mm^3): Day 0", "setting": "[5]", "result": 341, "unit": "mm^3"}, {"measurement": "% Regression: D28 Mean", "setting": "[5]", "result": 71, "unit": "%"}, {"measurement": "Mean Tumor Volume (mm^3) at harvest", "setting": "[5]", "result": 337, "unit": "mm^3"}, {"measurement": "Day of Harvest: Mean", "setting": "[5]", "result": "D145 days"}]}
